From patent publication US11365410B2, “Production and monitoring of metabolites in cells” (President and Fellows of Harvard College, priority 2015, dated 2022)

Assays:
[1] = test system: glucarate biosensor cdaR in BL21 cells; assay: Real-time glucarate monitoring from pathway intermediates with cdaR biosensor; assay type: cell-based, E. coli; conditions: strain with biosensor and biosynthesis pathway
Procedure: In representative examples, identical production conditions (genetics, media composition) were maintained but the exogenously supplemented precursor molecules were varied. […] The end-point fluorescence achieved by the addition of myo-inositol is just 20% that of glucuronate addition.
Glucarate production monitoring was carried out in BL21 cells doubly transformed with pJKR-H-cdaR and pJKR-GA-EXP. BL21 transformed with pJKR-H-cdaR alone was used as a control. Overnight cultures back-diluted 1:100 into Davis media supplemented with 5 g/L glucose. After four hours incubating at 200 RPM and 37° C., 150 μl of the log-phase cells were transferred to 96-well plates and exposed to 1 mM IPTG with the pathway intermediates described. […] End-point measurements were taken after eight hours. Glucarate production for titer measurement was carried out in BL21 transformed with pJKR-GA-EXP. An overnight culture was inoculated 1:100 into 1 mL of LB supplemented with 1 mM IPTG and the specified concentration of pathway intermediate. Production took place in 96-well blocks at 900 RPM and 37° C. for eight hours before supernatants were isolated and 0.2 μm filtered for LC/MS. All production runs were setup in triplicate. Error bars represent the 95% confidence interval derived from the standard error of the mean.

[2] = molecular target: T1, TetR, regulator sequence SEQ ID NO: 13 (Escherichia coli, UniProt P04483); assay: cell-based; assay type: cell-based; conditions: anhydrotetracycline; for Fold Induction: 15 h; for EC50: lumped half-maximal parameter from Hill fit
T1 construct: expressed in transfected cells; host or cells: E. coli DH5alpha transformed with pJKR-H (high copy) or pJKR-L (low copy) plasmid
Description: Plasmids were constructed using Gibson isothermal assembly methods (see Gibson, D. G., Young, L., Chuang, R. Y., Venter, J. C., Hutchison, C. A., 3rd and Smith, H. O. (2009) Enzymatic assembly of DNA molecules up to several hundred kilobases. Nat Methods, 6, 343-345 incorporated herein by reference in its entirety) and transformed into DH5α electrocompetent cells (New England Biolabs, Ipswich Mass.). All standard induction plasmids contained the rrnB strong terminator (see Orosz, A., Boros, I. and Venetianer, P. (1991) Analysis of the complex transcription termination region of the Escherichia coli rrnB gene. European journal of biochemistry/FEBS, 201, 653-659 incorporated herein by reference in its entirety) followed by the inducible promoter and the strong g10 RBS (see Olins, P. O., Devine, C. S., Rangwala, S. H. and Kavka, K. S. (1988) The T7 phage gene 10 leader RNA, a ribosome-binding site that dramatically enhances the expression of foreign genes in Escherichia coli. Gene, 73, 227-235 incorporated herein by reference in its entirety) ‘[…],’ (SEQ ID NO:1) driving the expression of sfGFP (see Pedelacq, J. D., Cabantous, S., Tran, T., Terwilliger, T. C. and Waldo, G. S. (2006) Engineering and characterization of a superfolder green fluorescent protein. […] GFP was followed by a transcriptional terminator prefixing the proB promoter (see Davis, J. H., Rubin, A. J. and Sauer, R. T. (2011) Design, construction and characterization of a set of insulated bacterial promoters. Nucleic acids research, 39, 1131-1141 incorporated herein by reference in its entirety) and strong RBS ‘[…],’ (SEQ ID NO:2) which facilitated expression of the transcriptional regulator. Each inducible system was implemented on high and low copy plasmids. High copy pJKR-H plasmids were constructed with the pUC origin and beta lactamase antibiotic resistance marker derived from pUC19 (New England Biolabs, Ipswich Mass.). Low copy pJKR-L plasmids were constructed in the same way, except that the pUC origin was replaced by the SC101 origin (including repA) from pSC101 obtained from American Type Culture Collection (ATCC #37032). […] The plasmids MphR-p15a-SPEC-mCherry and AcuR-colA-KAN-CFP were designed for compatible maintenance with pJKR-H-CdaR. In both these plasmids the antibiotic resistance gene and origin of replication were replaced with p15a-aadA and colA-kanR. Each enzyme was cloned downstream of the constitutive promoter P2 (see Mutalik, V. K., Guimaraes, J. C., Cambray, G., Lam, C., Christoffersen, M. J., Mai, Q. A., Tran, A. B., Paull, M., Keasling, J. D., Arkin, A. P. et al. (2013) Precise and reliable gene expression via standard transcription and translation initiation elements. Nat Methods, 10, 354-360 hereby incorporated by reference in its entirety) and g10 RBS to create pJKR-MIOX variants. These expression plasmids used the colA origin of replication and kanamycin resistance gene for maintenance. Sequences and plasmids are available on Addgene (plasmid numbers 62557-62570).
DH5α cells transformed with pJKR plasmids and maintained with carbenicillin were used in the induction assays. For each induction evaluation experiment, the cells were grown overnight to saturation before being diluted 1:100 into fresh LB media and incubated at 200 RPM and 37° C. After four hours, 150 μl of the log-phase cells were transferred to 96-well plates and stock inducer was added to achieve the desired range of induction concentrations. Three separate wells were inoculated and independently supplemented with the appropriate amount of inducing chemical for each level of induction. Measurements were made on the same Biotek (Winooksi, Vt.) HT plate reader using the same settings: excitation 485/20, emission 528/20, 37° C. and fast shaking. Fluorescence and absorbance were measured every 10 minutes for 15 hours. Fluorescence was measured in arbitrary units (AFU) while optical density was determined by absorbance (OD). […]

[3] = molecular target: T2, AraC, regulator sequence SEQ ID NO: 10 (Escherichia coli, UniProt P0A9E0); assay: AraC biosensor induction (sfGFP reporter, Hill fit); assay type: cell-based, E. coli; conditions: arabinose
T2 construct: expressed in transfected cells; host or cells: E. coli DH5alpha transformed with pJKR-H (high copy) or pJKR-L (low copy) plasmid
Description: (§1) Plasmids were constructed using Gibson isothermal assembly methods (see Gibson, D. G., Young, L., Chuang, R. Y., Venter, J. C., Hutchison, C. A., 3rd and Smith, H. O. (2009) Enzymatic assembly of DNA molecules up to several hundred kilobases. Nat Methods, 6, 343-345 incorporated herein by reference in its entirety) and transformed into DH5α electrocompetent cells (New England Biolabs, Ipswich Mass.). […] Each inducible system was implemented on high and low copy plasmids. High copy pJKR-H plasmids were constructed with the pUC origin and beta lactamase antibiotic resistance marker derived from pUC19 (New England Biolabs, Ipswich Mass.). Low copy pJKR-L plasmids were constructed in the same way, except that the pUC origin was replaced by the SC101 origin (including repA) from pSC101 obtained from American Type Culture Collection (ATCC #37032). […] In both these plasmids the antibiotic resistance gene and origin of replication were replaced with p15a-aadA and colA-kanR. Each enzyme was cloned downstream of the constitutive promoter P2 (see Mutalik, V. K., Guimaraes, J. C., Cambray, G., Lam, C., Christoffersen, M. J., Mai, Q. A., Tran, A. B., Paull, M., Keasling, J. D., Arkin, A. P. et al. (2013) Precise and reliable gene expression via standard transcription and translation initiation elements. Nat Methods, 10, 354-360 hereby incorporated by reference in its entirety) and g10 RBS to create pJKR-MIOX variants. These expression plasmids used the colA origin of replication and kanamycin resistance gene for maintenance. Sequences and plasmids are available on Addgene (plasmid numbers 62557-62570).
(§2) DH5α cells transformed with pJKR plasmids and maintained with carbenicillin were used in the induction assays. For each induction evaluation experiment, the cells were grown overnight to saturation before being diluted 1:100 into fresh LB media and incubated at 200 RPM and 37° C. […] Measurements were made on the same Biotek (Winooksi, Vt.) HT plate reader using the same settings: excitation 485/20, emission 528/20, 37° C. and fast shaking. Fluorescence and absorbance were measured every 10 minutes for 15 hours. Fluorescence was measured in arbitrary units (AFU) while optical density was determined by absorbance (OD). Normalized fluorescence was determined by dividing fluorescence by optical density for a given measurement. […]
(§3) The ratio of fluorescence to absorbance at 600 nm was used in order to compensate for changes in cell density over time and between experiments (AFU/OD). […] This transfer function is plotted on a log-log scale in FIG. 1A and FIG. 1B to capture the wide range of inducer concentrations and resulting fluorescence values. […]

[4] = test system: E. coli DH5α cells; assay: Toxicity of inducer chemicals (growth)
Procedure: (§4) Growth rate was measured for each combination of chemical and concentration during the exponential phase of growth. Rates were normalized to the growth rate of cells without any added chemical and plotted as bar height. Concentration of each inducer is indicated in the table, corresponding to the bar chart by order and color. […] Inducer concentrations mirror the concentrations used in the induction experiments.
(§5) 150 μl of cells were transferred into 96-well plates and the assayed chemical was immediately added in triplicate before further incubation at 600 RPM and 37° C.
(§6) Toxicity of the inducer chemicals was measured to help guide the choice of inducer concentration for biosensor applications. In applications where maximum protein production is the goal, toxicity will be less of a consideration. In contrast, sub-toxic induction is important for complex circuits that require the cell to maintain a healthy cell state.

[5] = molecular target: MphR (E. coli), regulator sequence SEQ ID NO: 12 (Escherichia coli, UniProt Q9EVJ6); assay: MphR biosensor induction (sfGFP reporter, Hill fit); assay type: cell-based; conditions: erythromycin
Description: as §1, §2, §3

[6] = molecular target: T3, TtgR (Pseudomonas putida), regulator sequence SEQ ID NO: 14 (Pseudomonas putida, UniProt Q9AIU0); assay: TtgR biosensor induction (sfGFP reporter, Hill fit); assay type: cell-based; conditions: naringenin
T3 construct: expressed in transfected cells; host or cells: E. coli DH5alpha transformed with pJKR-H (high copy) or pJKR-L (low copy) plasmid
Description: as §1, §2, §3

[7] = test system: DH5α cells; assay: Toxicity of inducer chemicals and solvents (growth); conditions: for effect on growth: arabinose high concentrations, glucarate highest concentration, ethanol low levels; for concentration at which toxicity was observed: E. coli without resistance gene
Procedure: as §4, §5, §6

[8] = test system: TtgR biosensor; assay: TtgR biosensor induction with phenol and related compounds; assay type: cell-based, E. coli; conditions: 0.1% phenol, 0.1% catechol, up to 0.4% benzene; fluorescence after 90 minutes
Procedure: All experiments were carried out in triplicate.
DH5α cells transformed with pJKR plasmids and maintained with carbenicillin were used in the induction assays. For each induction evaluation experiment, the cells were grown overnight to saturation before being diluted 1:100 into fresh LB media and incubated at 200 RPM and 37° C. After four hours, 150 μl of the log-phase cells were transferred to 96-well plates and stock inducer was added to achieve the desired range of induction concentrations. Three separate wells were inoculated and independently supplemented with the appropriate amount of inducing chemical for each level of induction. Measurements were made on the same Biotek (Winooksi, Vt.) HT plate reader using the same settings: excitation 485/20, emission 528/20, 37° C. and fast shaking. Fluorescence and absorbance were measured every 10 minutes for 15 hours. Fluorescence was measured in arbitrary units (AFU) while optical density was determined by absorbance (OD). Normalized fluorescence was determined by dividing fluorescence by optical density for a given measurement. Five independent wells containing control strains, transformed with pUC19, were included to provide a measurement of background autofluorescence.

Compound: O=C(O)[C@H]1OC(O)[C@H](O)[C@@H](O)[C@@H]1O (mixture of isomers) [glucuronate]
- end-point fluorescence relative to that of glucarate ([1]; eight hours): 80%

Compound: Cc1c2c(c(O)c3c(O)cccc13)C(=O)[C@]1(O)C(=O)C(C(N)=O)=C(O)[C@@H](N(C)C)[C@@H]1C2 [Anhydrotetracycline, anhydrotetracycline]
- Hill Coefficient ([2]; high copy): 4.2 ± 0.1
- Max Expression Velocity ([2]; high copy): 1760 ± 10 s⁻¹
- Fold Induction ([2]; high copy): 63 ± 3 fold
- EC50 ([2]; high copy): 0.081 ± 0.001 µM
- Hill Coefficient ([2]; low copy): 3.1 ± 0.3
- Max Expression Velocity ([2]; low copy): 116 ± 2 s⁻¹
- Fold Induction ([2]; low copy): >50 fold
- EC50 ([2]; low copy): 0.054 ± 0.002 µM

Compound: OC1OC[C@H](O)[C@H](O)[C@H]1O (stereo partly shown) [Arabinose, arabinose]
- Hill Coefficient ([3]; high copy): 1.3 ± 0.1
- Max Expression Velocity ([3]; high copy): 3150 ± 60 s⁻¹
- Hill Coefficient ([3]; low copy): 1.3 ± 0.2
- Max Expression Velocity ([3]; low copy): 1260 ± 50 s⁻¹

Compound: CC[C@H]1OC(=O)[C@H](C)[C@@H](O[C@H]2C[C@@](C)(OC)[C@@H](O)[C@H](C)O2)[C@H](C)[C@@H](O[C@@H]2O[C@H](C)C[C@H](N(C)C)[C@H]2O)[C@](C)(O)C[C@@H](C)C(=O)[C@H](C)[C@@H](O)[C@]1(C)O [Erythromycin, erythromycin]
- Toxicity in induction experiment ([4]; 1400 μM and 450 μM erythromycin, low-copy MphR): high toxicity
- Toxicity ([4]; with eryR, erythromycin up to 1.4 mM): only slight toxicity
- Hill Coefficient ([5]; high copy): 1.6 ± 0
- Max Expression Velocity ([5]; high copy): 2070 ± 20 s⁻¹
- Hill Coefficient ([5]; low copy): 1.6 ± 0.1
- Max Expression Velocity ([5]; low copy): 66 ± 1 s⁻¹

Compound: O=C1C[C@@H](c2ccc(O)cc2)Oc2cc(O)cc(O)c21 [Naringenin, naringenin]
- Hill Coefficient ([6]; high copy): 3.8 ± 0.6
- Max Expression Velocity ([6]; high copy): 180 ± 6 s⁻¹
- Hill Coefficient ([6]; low copy): 2.3 ± 0.4
- Max Expression Velocity ([6]; low copy): 25 ± 1 s⁻¹

Compound: Cc1c2c(c(O)c3c(O)cccc13)C(=O)[C@]1(O)C(=O)C(C(N)=O)=C(O)[C@@H](N(C)C)[C@@H]1C2 [anhydrotetracycline]
- concentration at which growth defect was observed ([7]; E. coli, defect likely due to solvent ethanol): 0.43 µM

Compound: O=C[C@@H](O)[C@H](O)[C@H](O)CO [arabinose]
- effect on growth [7]: higher growth rates

Compound: c1ccccc1 [benzene]
- fluorescent response of TtgR biosensor [8]: background levels of fluorescence

Compound: CC[C@H]1OC(=O)[C@H](C)[C@@H](O[C@H]2C[C@@](C)(OC)[C@@H](O)[C@H](C)O2)[C@H](C)[C@@H](O[C@@H]2O[C@H](C)C[C@H](N(C)C)[C@H]2O)[C@](C)(O)C[C@@H](C)C(=O)[C@H](C)[C@@H](O)[C@]1(C)O [erythromycin]
- concentration at which toxicity was observed [7]: ≥ 50 µM
- concentration up to which only slight toxicity was observed ([7]; with expression of the erythromycin resistance gene (eryR)): up to 1.4 mM

Compound: CCO [ethanol]
- effect on growth [7]: more modest growth benefits

Compound: O=C(O)[C@@H](O)[C@@H](O)[C@H](O)[C@@H](O)C(=O)O [glucarate]
- effect on growth [7]: more modest growth benefits

Compound: O[C@H]1[C@H](O)[C@@H](O)[C@H](O)[C@@H](O)[C@H]1O [myo-inositol]
- lag of fluorescence response behind glucuronate [1]: 60 min
- end-point fluorescence relative to that of glucuronate addition ([1]; eight hours): 20%

Compound: O=C1C[C@@H](c2ccc(O)cc2)Oc2cc(O)cc(O)c21 [naringenin]
- concentration at which toxicity was observed [7]: ≥ 330 µM

Compound: Oc1ccccc1 [phenol]
- fluorescent response of TtgR biosensor [8]: activated the sensor
